This assay addresses T1, 5HT6 human recombinant receptor (Homo sapiens, UniProt P50406).
T1 construct: purchased Receptor Biology; host or cells: HEK-293 cell membranes
In words: Binding with Serotonin Receptor 5HT6 ([3H]-LSD radioligand, HEK-293 cell membranes). The note with it: [3H]-LSD 2.7 nM, HEK-293 membranes; for Ki: non-linear regression EBDA/LIGAND; for inhibition at 0.01 µM: compound 10 nM; for inhibition at 0.01 µM / inhibition at 0.1 µM: 60 min, 37° C.; for inhibition at 0.1 µM: compound 100 nM. The method, then: Binding with Serotonin Receptor 5HT6
Cell membranes of HEK-293 cells expressing the 5HT6 human recombinant receptor were supplied by Receptor Biology. In said membranes the receptor concentration is 2.18 pmol/mg protein and the protein concentration is 9.17 mg/ml. The experimental protocol follows the method of B. L. Roth et al. [B. L. Roth, S. C. Craigo, M. S. Choudhary, A. Uluer, F. J. Monsma, Y. Shen, H. Y. Meltzer, D. R. Sibley: Binding of Typical and Atypical Antipsychotic Agents to 5-Hydroxytryptamine-6 and Hydroxytriptamine-7 Receptors. The Journal of Pharmacology and Experimental Therapeutics, 1994, 268, 1403] with slight changes. The commercial membrane is diluted (1:40 dilution) with the binding buffer: 50 mM Tris-HCl, 10 mM MgCl2, 0.5 mM EDTA (pH 7.4). The radioligand used is [^3H]-LSD at a concentration of 2.7 nM with a final volume of 200 μl. incubation is initiated by adding 100 μl of membrane suspension, (≈22.9 μg membrane protein), and is prolonged for 60 minutes at a temperature of 37° C. The incubation is ended by fast filtration in a Brandel Cell Harvester through fiber glass filters made by Schleicher & Schuell GF 3362 pretreated with a solution of polyethylenimine at 0.5%. The filters are washed three times with three milliliters of buffer Tris-HCl 50 mM pH 7.4. The filters are transferred to flasks and 5 ml of Ecoscint H liquid scintillation cocktail are added to each flask. The flasks are allowed to reach equilibrium for several hours before counting with a Wallac Winspectral 1414 scintillation counter. Non-specific binding is determined in the presence of 100 μM of serotonin. Tests were made in triplicate. The inhibition constants (Ki, nM) were calculated by non-linear regression analysis using the program EBDA/LIGAND [Munson and Rodbard, Analytical Biochemistry, 1980, 107, 220].

T1 sequence (P50406 whole entry): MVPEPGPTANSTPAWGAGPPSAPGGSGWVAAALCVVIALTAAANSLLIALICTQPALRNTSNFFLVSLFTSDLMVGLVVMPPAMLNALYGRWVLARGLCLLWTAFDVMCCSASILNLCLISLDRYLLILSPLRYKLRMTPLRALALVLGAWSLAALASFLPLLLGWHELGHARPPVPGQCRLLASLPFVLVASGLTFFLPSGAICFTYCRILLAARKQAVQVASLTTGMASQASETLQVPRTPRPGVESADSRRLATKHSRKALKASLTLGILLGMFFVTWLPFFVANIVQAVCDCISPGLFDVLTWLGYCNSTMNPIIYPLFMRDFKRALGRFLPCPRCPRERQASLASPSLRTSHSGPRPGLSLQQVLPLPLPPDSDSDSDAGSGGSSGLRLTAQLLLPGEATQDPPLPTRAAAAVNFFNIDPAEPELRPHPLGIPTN

For orientation: Ki means a measure of affinity in units of concentration, obtained from inhibition or displacement. As for `CCNCCc1c[nH]c2ccc(NS(=O)(=O)c3cccc4ccccc34)cc12` [Example 1, Naphthalene-1-sulfonic acid [3-(2-ethylamino-ethyl)-1H-indol-5-yl]-amide], the inhibition constant Ki was 3 nM.

What is called inhibition is how much of the control response was suppressed. In the case of `CNCCc1c[nH]c2ccc(NS(=O)(=O)c3cccc4ccccc34)cc12` [Example 2, Naphthalene-1-sulfonic acid [3-(2-methylamino-ethyl)-1H-indol-5-yl]-amide], the Ki turned out to be 2.9 nM, the inhibition at 0.01 µM came out at 83% and the inhibition at 0.1 µM was determined as 91.2%.

Consider `CCNCCc1c[nH]c2ccc(NS(=O)(=O)c3ccc4c(Cl)cccc4c3)cc12` [Example 3, 5-Chloro-naphthalene-2-sulfonic acid [3-(2-ethylamino-ethyl)-1H-indol-5-yl]-amide], for which the Ki is 2 nM, the inhibition at 0.01 µM is 60.1% and the inhibition at 0.1 µM is 82.9%.

For the molecule `CNCCc1c[nH]c2ccc(NS(=O)(=O)c3ccc4c(Cl)cccc4c3)cc12` [Example 4, 5-Chloro-naphthalene-2-sulfonic acid [3-(2-methylamino-ethyl)-1H-indol-5-yl]-amide], the inhibitory constant (Ki) is 2.1 ± 1.3 nM, the inhibition at 0.01 µM was 64.9% and the inhibition at 0.1 µM worked out at 73.5%.

As for `NCCc1c[nH]c2ccc(NS(=O)(=O)c3cccc4ccccc34)cc12` [Example 5, Naphthalene-1-sulfonic acid [3-(2-amino-ethyl)-1H-indol-5-yl]-amide], the Ki is 26.4 nM, the inhibition at 0.01 µM was determined as 41.6% and the inhibition at 0.1 µM is 76.9%.

As for `CNCCc1cn(C)c2ccc(NS(=O)(=O)c3ccc4c(Cl)cccc4c3)cc12` [Example 6, 5-Chloro-naphthalene-2-sulfonic acid [1-methyl-3-(2-methylamino-ethyl)-1H-indol-5-yl]-amide], the inhibition at 0.01 µM was 39.7% and the inhibition at 0.1 µM came to 79.8%.

Take `NCCc1c[nH]c2ccc(NS(=O)(=O)c3ccc4ccccc4c3)cc12` [Example 7, Naphthalene-2-sulfonic acid [3-(2-amino-ethyl)-1H-indol-5-yl]-amide]: the inhibition constant (Ki) came to 7.1 ± 1.1 nM, the inhibition at 0.01 µM came out at 66% and the inhibition at 0.1 µM worked out at 84.6%.

For `NCCc1c[nH]c2ccc(NS(=O)(=O)c3ccc4c(Cl)cccc4c3)cc12` [Example 8, 5-Chloro-naphthalene-2-sulfonic acid [3-(2-amino-ethyl)-1H-indol-5-yl]-amide], the Ki came out at 1.4 nM, the inhibition at 0.01 µM is 65.6% and the inhibition at 0.1 µM amounted to 86.1%.

On to `Cn1cc(CCN)c2cc(NS(=O)(=O)c3ccc4c(Cl)cccc4c3)ccc21` [Example 9, 5-Chloro-naphthalene-2-sulfonic acid [3-(2-amino-ethyl)-1-methyl-1H-indol-5-yl]-amide], for which the inhibition at 0.01 µM worked out at 34.1% and the inhibition at 0.1 µM stood at 78%.
